Reference: patent US11098029B2, “5-alkyl pyrrolidine orexin receptor agonists” (Merck Sharp & Dohme Corp., priority 2019, dated 2021)

What follows are molecules tested against human OX2R (Homo sapiens (Human), UniProt O43614) (assay: IPOne (IP-One, Cisbio) orexin receptor agonist assay in CHO cells expressing human OX2R). Conditions: not given.
Chain of human OX2R (O43614 whole entry): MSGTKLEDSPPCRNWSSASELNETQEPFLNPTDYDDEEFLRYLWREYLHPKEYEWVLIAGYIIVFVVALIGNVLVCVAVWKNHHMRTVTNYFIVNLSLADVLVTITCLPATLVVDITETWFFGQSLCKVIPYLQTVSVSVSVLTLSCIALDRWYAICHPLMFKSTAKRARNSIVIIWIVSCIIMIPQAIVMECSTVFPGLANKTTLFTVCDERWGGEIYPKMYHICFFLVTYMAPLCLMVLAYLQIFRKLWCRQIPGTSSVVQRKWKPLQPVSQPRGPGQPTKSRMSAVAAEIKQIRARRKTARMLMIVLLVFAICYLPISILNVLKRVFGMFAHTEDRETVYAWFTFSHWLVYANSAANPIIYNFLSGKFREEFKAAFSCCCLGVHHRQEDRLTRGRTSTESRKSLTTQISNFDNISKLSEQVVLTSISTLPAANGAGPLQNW

SMILES	IC50 [nM]
COC(=O)N1[C@@H](CO[C@H]2CC[C@@H](c3ccccc3)CC2)[C@@H](NS(C)(=O)=O)CC12CC2 (relative stereo) [Example 41, methyl (CIS)-6-(methylsulfonamido)-5-((((CIS)-4-phenylcyclohexyl)oxy)methyl)-4-azaspiro[2.4]heptane-4-carboxylate]	224
CCC1(CC)C[C@@H](NS(C)(=O)=O)[C@@H](CO[C@H]2CC[C@@H](c3ccccc3)CC2)N1C(=O)OC (relative stereo) [Example 42, methyl (CIS)-2,2-diethyl-4-(methylsulfonamido)-5-((((CIS)-4-phenylcyclohexyl)oxy)methyl)-pyrrolidine-1-carboxylate]	316
CCNC(=O)N1[C@H](C)C[C@H](NS(C)(=O)=O)[C@@H]1COC1CCC(C(C)C)CC1 (stereo partly drawn) [Example 1, (2R,3S,5R)—N-ethyl-2-(((4-isopropylcyclohexyl)oxy)methyl)-5-methyl-3-(methylsulfonamido)-pyrrolidine-1-carboxamide]	15.2
CCOC(=O)N1[C@H](C)C[C@H](NS(C)(=O)=O)[C@@H]1COC1CCC(C(C)C)CC1 (stereo partly drawn) [Example 7, ethyl (2R,3S,5R)-2-(((4-isopropylcyclohexyl)oxy)meth-yl)-5-methyl-3-(methylsulfonamido)pyrrolidine-1-carboxylate]	45.5

Same assay, conditions: CHO, hOX2R_IP; percentage of mean max effect of a reference compound at 1 uM (100% activity vs Orexin A)

SMILES	Emax [%]
CC[C@@H]1C[C@H](NS(C)(=O)=O)[C@H](CO[C@H]2CC[C@@H](c3ccccc3)CC2)N1C(=O)OC (racemic) [Example 43, methyl (2R,3S,5R)-5-ethyl-3-(methylsulfonamido)-2-((((CIS)-4-phenylcyclohexyl)oxy)methyl)-pyrrolidine-1-carboxylate]	103
COC(=O)N1[C@@H](CO[C@H]2CC[C@@H](c3ccccc3)CC2)[C@@H](NS(C)(=O)=O)CC12CC2 (relative stereo) [Example 41, methyl (CIS)-6-(methylsulfonamido)-5-((((CIS)-4-phenylcyclohexyl)oxy)methyl)-4-azaspiro[2.4]heptane-4-carboxylate]	99
CCC1(CC)C[C@@H](NS(C)(=O)=O)[C@@H](CO[C@H]2CC[C@@H](c3ccccc3)CC2)N1C(=O)OC (relative stereo) [Example 42, methyl (CIS)-2,2-diethyl-4-(methylsulfonamido)-5-((((CIS)-4-phenylcyclohexyl)oxy)methyl)-pyrrolidine-1-carboxylate]	100
CCNC(=O)N1[C@H](C)C[C@H](NS(C)(=O)=O)[C@@H]1COC1CCC(C(C)C)CC1 (stereo partly drawn) [Example 1, (2R,3S,5R)—N-ethyl-2-(((4-isopropylcyclohexyl)oxy)methyl)-5-methyl-3-(methylsulfonamido)-pyrrolidine-1-carboxamide]	101
CCNC(=O)N1[C@H](C)C[C@H](NS(C)(=O)=O)[C@@H]1COC1CCC(C(F)(F)F)CC1 (stereo partly drawn) [Example 2, (2R,3S,5R)—N-ethyl-5-methyl-3-(methylsulfonamido)-2-(((4-(trifluoromethyl)-cyclohexyl)oxy)methyl)pyrrolidine-1-carboxamide]	100
COC(=O)N1[C@H](C)C[C@H](NS(C)(=O)=O)[C@@H]1COC1CCC(C(C)C)CC1 (stereo partly drawn) [Example 3, methyl (2R,3S,5R)-2-(((4-isopropylcyclohexyl)oxy)methyl)-5-methyl-3-(methylsulfonamido)pyrrolidine-1-carboxylate]	98
CC(C)OC(=O)N1[C@H](C)C[C@H](NS(C)(=O)=O)[C@@H]1COC1CCC(C(C)C)CC1 (stereo partly drawn) [Example 5, isopropyl (2R,3S,5R)-2-(((4-isopropylcyclohexyl)oxy)meth-yl)-5-methyl-3-(methylsulfonamido)pyrrolidine-1-carboxylate]	101
CCOC(=O)N1[C@H](C)C[C@H](NS(C)(=O)=O)[C@@H]1COC1CCC(C(C)C)CC1 (stereo partly drawn) [Example 7, ethyl (2R,3S,5R)-2-(((4-isopropylcyclohexyl)oxy)meth-yl)-5-methyl-3-(methylsulfonamido)pyrrolidine-1-carboxylate]	100
CCOC(=O)N1[C@H](C)C[C@H](NS(=O)(=O)N(C)C)[C@@H]1COC1CCC(C(C)C)CC1 (stereo partly drawn) [Example 8, ethyl (2R,3S,5R)-3-((N,N-dimethylsulfamoyl)amino)-2-(((4-isopropylcyclohexyl)oxy)meth-yl)-5-methylpyrrolidine-1-carboxylate]	101
CC(C)C1CCC(OC[C@H]2[C@@H](NS(C)(=O)=O)C[C@@H](C)N2C(=O)OCC(F)F)CC1 (stereo partly drawn) [Example 9, 2,2-difluoroethyl (2R,3S,5R)-2-(((4-isopropylcyclohexyl)oxy)meth-yl)-5-methyl-3-(methylsulfonamido)pyrrolidine-1-carboxylate]	101
CC(C)C1CCC(OC[C@H]2[C@@H](NS(C)(=O)=O)C[C@@H](C)N2C(=O)OCCF)CC1 (stereo partly drawn) [Example 10, 2-fluoroethyl (2R,3S,5R)-2-(((4-isopropylcyclohexyl)oxy)meth-yl)-5-methyl-3-(methylsulfonamido)pyrrolidine-1-carboxylate]	99
COC(=O)N1[C@H](C)C[C@H](NS(=O)(=O)N(C)C)[C@@H]1COC1CCC(C(F)(F)F)CC1 (stereo partly drawn) [Example 11, methyl (2R,3S,5R)-3-((N,N-dimethylsulfamoyl)amino)-5-methyl-2-(((4-(trifluoromethyl)cyclohexyl)oxy)methyl)pyrrolidine-1-carboxylate]	99
COC(=O)N1[C@H](C)C[C@H](NS(C)(=O)=O)[C@@H]1COC1CCC(CC(F)(F)F)CC1 (stereo partly drawn) [Example 12, methyl (2R,3S,5R)-5-methyl-3-(methylsulfonamido)-2-(((4-(2,2,2-trifluoroethyl)cyclohexyl)oxy)methyl)pyrrolidine-1-carboxylate]	99
CC(C)C1CCC(OC[C@H]2[C@@H](NS(=O)(=O)N(C)C)C[C@@H](C)N2C(=O)OCC(F)F)CC1 (stereo partly drawn) [Example 14, 2,2-difluoroethyl (2R,3S,5R)-3-((N,N-dimethylsulfamoyl)amino)-2-(((4-isopropylcyclohexyl)oxy)meth-yl)-5-methylpyrrolidine-1-carboxylate]	100
COC(=O)N1[C@H](C)C[C@H](NS(C)(=O)=O)[C@@H]1CO[C@H]1CC[C@@H](c2cc(F)ccc2F)CC1 [Example 20, methyl (2R,3S,5R)-2-((((1r,4R)-4-(2,5-difluorophenyl)cyclo-hexyl)oxy)methyl)-5-methyl-3-(methylsulfona-mido)pyrrolidine-1-carboxylate]	102
COC(=O)N1[C@H](C)C[C@H](NS(=O)(=O)N(C)C)[C@@H]1CO[C@H]1CC[C@@H](c2cc(F)ccc2F)CC1 [Example 21, methyl (2R,3S,5R)-2-((((1R,4R)-4-(2,5-difluorophenyl)cyclohexyl)oxy)methyl)-3-((N,N-dimethylsulfa-moyl)amino)-5-methylpyrrolidine-1-carboxylate]	101
C[C@@H]1C[C@H](NS(=O)(=O)N(C)C)[C@H](CO[C@H]2CC[C@@H](c3cc(F)ccc3F)CC2)N1C(=O)OCC(F)F [Example 22, 2,2-difluoroethyl (2R,3S,5R)-2-((((1r,4R)-4-(2,5-difluorophenyl)-cyclohexyl)oxy)methyl)-3-((N,N-dimethylsulfamoyl)amino)-5-methylpyrrolidine-1-carboxylate]	100
COC(=O)N1[C@H](C)C[C@H](NS(=O)(=O)N(C)C)[C@@H]1CO[C@H]1CC[C@@H](c2ccccc2F)CC1 [Example 23, methyl (2R,3S,5R)-3-((N,N-dimethylsulfamoyl)amino)-2-((((1s,4S)-4-(2-fluorophenyl)cyclohexyl)oxy)methyl-5-methylpyrrolidine-1-carboxylate]	97
COC(=O)N1[C@H](C)C[C@H](NS(=O)(=O)CF)[C@@H]1CO[C@H]1CC[C@@H](c2cccc(F)c2)CC1 [Example 26, methyl (2R,3S,5R)-3-((fluoromethyl)sulfonamido)-2-((((1s,4S)-4-(3-fluorophenyl)cyclohexyl)oxy)methyl)-5-methylpyrrolidine-1-carboxylate]	98
COC(=O)N1[C@H](C)C[C@H](NS(C)(=O)=O)[C@@H]1CO[C@H]1CC[C@@H](c2ccccc2C(F)(F)F)CC1 [Example 27, methyl (2R,3S,5R)-5-methyl-3-(methylsulfonamido)-2-((((1r,4R)-4-(2-(trifluorometh-yl)phenyl)cyclohexyl)oxy)methyl)pyrrolidine-1-carboxylate]	100

Same assay, conditions: hOX2R_IP; percentage of mean max effect of a reference compound at 1 uM (100% activity vs Orexin A)

SMILES	Emax (%)
C=C[C@@H]1C[C@H](NS(C)(=O)=O)[C@H](CO[C@H]2CC[C@@H](c3ccccc3)CC2)N1C(=O)OC (relative stereo) [Example 48, methyl (CIS)-3-(methylsulfonamido)-2-((((CIS)-4-phenylcyclohexyl)oxy)methyl)-5-vinylpyrrolidine-1-carboxylate]	102
COC(=O)N1[C@H](C)C[C@H](NS(C)(=O)=O)[C@@H]1CO[C@H]1CC[C@@H](C(C)C)CC1 [Example 4, methyl (2R,3S,5R)-2-((((1s,4S)-4-isopropylcyclohexyl)oxy)methyl)-5-methyl-3-(methylsulfonamido)pyrrolidine-1-carboxylate]	102
CNS(=O)(=O)N[C@H]1C[C@@H](C)N(C(=O)OC(C)C)[C@H]1COC1CCC(C(C)C)CC1 (stereo partly drawn) [Example 6, isopropyl (2R,3S,5R)-2-(((4-isopropylcyclohexyl)oxy)meth-yl)-5-methyl-3-((N-methylsulfamoyl)amino) pyrrolidine-1-carboxylate]	100
CNS(=O)(=O)N[C@H]1C[C@@H](C)N(C(=O)OCC(F)F)[C@H]1COC1CCC(C(C)C)CC1 (stereo partly drawn) [Example 13, 2,2-difluoroethyl (2R,3S,5R)-2-(((4-isopropylcyclohexyl)oxy)meth-yl)-5-methyl-3-((N-methylsulfamoyl)amino)pyrro-lidine-1-carboxylate]	101
COC(=O)N1[C@H](C)C[C@H](NS(C)(=O)=O)[C@@H]1CO[C@H]1CC[C@@H](c2ccccc2)CC1 [Example 15, methyl (2R,3S,5R)-5-methyl-3-(methylsulfonamido)-2-((((1s,4S)-4-phenylcyclohexyl)oxy)-methyl)pyrrolidine-1-carboxylate]	101
CNS(=O)(=O)N[C@H]1C[C@@H](C)N(C(=O)OCC(F)F)[C@H]1CO[C@H]1CC[C@@H](c2ccccc2)CC1 [Example 16, 2,2-difluoroethyl (2R,3S,5R)-5-methyl-3-((N-methylsulfamoyl)amino)-2-((((1s,4S)-4-phenylcyclohexyl)oxy)methyl)pyrrolidine-1-carboxylate]	101
C[C@@H]1C[C@H](NS(=O)(=O)N(C)C)[C@H](CO[C@H]2CC[C@@H](c3ccccc3)CC2)N1C(=O)OCC(F)F [Example 17, 2,2-difluoroethyl (2R,3S,5R)-3-((N,N-dimethylsulfamoyl)amino)-5-methyl-2-((((1s,4S)-4-phenylcyclohexyl)oxy)methyl)pyrrolidine-1-carboxylate]	102
COC(=O)N1[C@H](C)C[C@H](NS(=O)(=O)N(C)C)[C@@H]1CO[C@H]1CC[C@@H](c2ccccc2)CC1 [Example 19, methyl (2R,3S,5R)-3-((N,N-dimethylsulfamoyl)amino)-5-methyl-2-((((1s,4S)-4-phenylcyclohexyl)-oxy)methyl)pyrrolidine-1-carboxylate]	100
COC(=O)N1[C@H](C)C[C@H](NS(=O)(=O)CF)[C@@H]1CO[C@H]1CC[C@@H](c2cccc(F)c2)CC1 [Example 26, methyl (2R,3S,5R)-3-((fluoromethyl)sulfonamido)-2-((((1s,4S)-4-(3-fluorophenyl)cyclohexyl)oxy)methyl)-5-methylpyrrolidine-1-carboxylate]	102
